The values that follow come from patent US11384113B2, “Cobalamin derivatives and their use for the treatment of diseases caused by lack of vitamin B12 supply” (Albert-Ludwigs-Universitaet Freiburg, priority 2017, dated 2022).

Data set [1] is described as follows: Concentration-dependent reaction rate of aquacobalamin with thiol ligand forming thiolatocobalamin (time-resolved UV-visible spectroscopy). Type of data set: physicochemical. The following applies: pH 7.2, l = 1, sodium triflate. As for the experimental part:
The UV-visible spectra of newly synthesized cobalamin derivatives was determined in EPPS buffer (40 mM, pH 7.6, l=1.0 M with sodium triflate). The reaction of aquacobalamin with cysteamine and mercaptopropionylglycine was monitored by time-resolved spectral scanning of reactions containing a fixed amount of aquacobalamin (10-25 μM (micromolar)) and various concentrations of the ligand.
Mercaptopropionylglycine reacted readily with aquacobalamin to form a stable MPGCbl complex at pH 7.2.
A fixed concentration of aquacobalamin was reacted with varying concentrations of the ligand MPG. The reaction was monitored by time-resolved UV-visible spectroscopy for a total of 50 minutes (FIG. 5). The spectral changes were consistent with the conversion of aquacobalamin into MPGCbl (FIG. 5 a) via a mechanism that involves no detectable reaction intermediates. Initial and final spectra are analyzed to confirm the identity of the thiolatocobalamin product (FIG. 5 b). Time courses were generated at the absorption maxima of each species (350 nm, H2OCbl^+, and 372 nm, MPGCbl) (FIG. 5 c).

Data set [2] deals with T1, human recombinant CblC wild type (Homo sapiens, UniProt Q9Y4U1).
T1 sequence (Q9Y4U1 1-282): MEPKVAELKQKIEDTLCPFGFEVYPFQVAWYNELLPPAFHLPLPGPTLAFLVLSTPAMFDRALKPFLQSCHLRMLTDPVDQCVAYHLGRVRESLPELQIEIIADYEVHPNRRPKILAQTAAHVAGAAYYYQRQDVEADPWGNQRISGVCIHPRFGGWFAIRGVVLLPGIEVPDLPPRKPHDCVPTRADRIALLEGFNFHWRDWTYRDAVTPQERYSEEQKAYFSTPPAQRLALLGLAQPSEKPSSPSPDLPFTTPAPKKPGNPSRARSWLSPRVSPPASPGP
Type of data set: biochemical. Conditions: for Half-life of beta-axial ligand removal, Wild type CblC: human, pH 7.6. As for the experimental part:
(§1) The ability of the newly synthesized Cbl derivatives to serve as substrates for CblC was examined (FIG. 12). CblC activity was measured by UV-visible spectroscopy according to published procedures. Analysis of reaction products was performed by mass spectrometry. We measured dealkylation and de-thiolation of Co—C and Co—S bonded Cbl derivatives, respectively, by wild type and mutant CblC proteins to determine whether these reactions could be supported in patients harboring an abnormal isoform of CblC with low or no enzymatic activity.
The enzymatic activity of CblC in the presence of CyaCbl and MPGCbl as substrates was evaluated under the same experimental conditions utilized to examine dealkylation of MeCbl and AdoCbl. […] The reaction was complete in less than 10 seconds, which is the time it takes to record the first spectrum after mixing of CblC-bound to CyaCbl or MPGCbl with 5 mM GSH (FIG. 12).
(§2) First, the ability of novel cobalamins described herein was tested to act as substrate for wild type CblC and to restore the lost activity of pathogenic variants, such as mutant Arg161Gly, that leads to early-onset form of the cblC disease.

Data set [3] addresses T2, human recombinant CblC pathogenic mutant Arg161Gly (Homo sapiens, UniProt Q9Y4U1, R161G).
T2 sequence (Q9Y4U1 1-282 R161G): T1 sequence (Q9Y4U1 1-282) with R161G
Type of data set: biochemical. Conditions: for Product under ambient conditions, Mutant Arg161Gly: dethiolation, 50 μM GSH; for Half-life of beta-axial ligand removal, Mutant Arg161Gly: human, pH 7.6. As for the experimental part: as §1, §2

Data set [4] has as its system fibroblasts from healthy subjects. As to the kind of experiment: MMA in conditioned medium of control fibroblasts. The data set is classed as cell-based, human. An excerpt: (§3) Cultured cells from control (healthy neonatal subjects) or cblC fibroblasts were supplemented without exogenous Cbl (negative control), with commercial CNCbl (current therapy control) or with the newly synthesized cobalamins (test group). The ability of these compounds to support intracellular Cbl metabolism in the absence of CblC was examined by monitoring disease biomarker metabolites Hcy and MMA levels in the conditioned medium.
(§4) The cellular response to treatment with new derivatives CyaCbl and MPGCbl in comparison with current therapeutic form CNCbl was measured. The ability of the new cobalamin derivatives CyaCbl and MPGCbl to achieve metabolic control, i.e. reduction of for example MMA production by cblC fibroblasts in culture, was examined as described in previously published experimental protocols. FIG. 13 provides a comparison of the effect of CNCbl (0.001 mM) versus the same dose of CyaCbl or MPGCbl given to cultured fibroblasts from healthy subjects (HFF, NHDF, PCS, Wiesel, Control) or from cblC patients (WG1801, WG2176, WG3354, GM10011, GM02345B, GM02452C).
(§5) Additional examination of the effect of thiolatocobalamins CyaCbl and MPGCbl and sulfur-containing alkylcobalamin Me-S-MeCbl with respect to structural analogues that are NOT available for therapy was also carried out, for comparative purposes. The results of cellular response (healthy controls and cblC patient fibroblasts) to cobalamin treatment, as reflected by MMA levels is provided in Table 6.

The subject of data set [5] is fibroblasts isolated from patients with cblC disease. As to the kind of experiment: MMA in conditioned medium of cblC patient fibroblasts. Type of data set: cell-based, human.
Source text: as §3, §4, §5

For data set [6] the following is noted: pH 7.72, l = 0.5, KNO3; cited from earlier work.
Data set [7] has as its target T1, human recombinant CblC wild type. Type of data set: biochemical. The following applies: dethiolation; 50 μM GSH.
In another data set the target is T3, human wild type CblC (Homo sapiens, UniProt Q9Y4U1).
T3 sequence (Q9Y4U1 1-282): T1 sequence (Q9Y4U1 1-282)
Kind of data set: Binding to CblC and conversion to base-off configuration (UV-visible spectrophotometry). The following applies: pH 7.6, EPPS buffer 0.04 M. As for the experimental part: An important aspect for the bioactivity of the new compounds is their ability to bind to the processing enzyme CblC, and to undergo conversion to the base-off configuration, which enhances their reactivity. This is a critical step in all intracellular pathways of vitamin B12 metabolism that are involved in pathogenesis, and certainly, relevant to the cblC disease itself. […] Binding studies were conducted at pH 7.6 (EPPS buffer, 0.04 M) and analyzed by UV-visible spectrophotometry.

Data set [8] is described as follows: UV-visible spectrum of purified cobalamin in water (base-off configuration without CblC). Conditions: after acetone precipitation and vacuum filtration. The data set is classed as physicochemical.
For another data set, the system named is cultured fibroblasts. Kind of data set: Cytotoxicity and cellular transport observed in cultured fibroblast experiments. The data set is classed as cell-based, human.
[9] abbreviates: Controls (group value), after 7 days.
The mark [10] stands for this setting: Controls, after 7 days wash-off period without supplemental cobalamin.
The mark [11] stands for this setting: HFF control fibroblasts, after 7 days.
[12] abbreviates: NHDF control fibroblasts, after 7 days.
[13] abbreviates: Wiezel control fibroblasts, after 7 days.
[14] abbreviates: GM02345B cblC fibroblasts, after 7 days.
[15] abbreviates: GM02452C cblC fibroblasts, after 7 days.
The mark [16] stands for this setting: GM10011 cblC fibroblasts, after 7 days.
The mark [17] stands for this setting: WG1801 cblC fibroblasts, after 7 days.
[18] abbreviates: WG2176 cblC fibroblasts, after 7 days.
Where [19] appears, read: WG3354 cblC fibroblasts, after 7 days.
Where [20] appears, read: cblC patients (group value), after 7 days.
Setting [21] is: cblC patients, after 7 days wash-off period without supplemental cobalamin.

Each structure is given as a SMILES string. Where a chain is given by its changes, count along the chain named. Like-named read-outs stand apart in the source and are kept apart here.

For `C/C1=C2N=C(/C=C3N=C(/C(C)=C4\[N-]C(C(CC(N)=O)C4(C)CCC(=O)NCC(C)OP(=O)([O-])OC4C(CO)OC(n5cnc6cc(C)c(C)cc65)C4O)C4(C)N=C1C(CCC(N)=O)C4(C)CC(N)=O)C(CCC(N)=O)C\3(C)C)C(CCC(N)=O)C/2(C)CC(N)=O.NC(CCC(=O)NC(C[S-])C(=O)NCC(=O)O)C(=O)O.[Co+3]` (centres unmarked) [GSCbl, glutathionylcobalamin, reference compound], the “K, concentration-dependent reaction rate (formation from aquacobalamin)” value in [1] is 20.74 M⁻¹ s⁻¹; in data set [6], 18.09 M⁻¹ s⁻¹. Also, the “Half-life of beta-axial ligand removal, Wild type CblC” value in data set [2] was 2.5 min. Also, in data set [2] (wild type and pathogenic variant Arg161Gly), the “Fold less proficient support of the CblC reaction than MPGCbl and CyaCbl” value is reported as 4-5 fold. Besides, in data set [3], the “Product under ambient conditions, Mutant Arg161Gly” value is “H2OCbl”. The “Half-life of beta-axial ligand removal, Mutant Arg161Gly” value in data set [3] was 9.8 min. Further, the “MMA in conditioned medium” value was determined as 0.106 μmol/mg protein in data set [4] (setting [9]); 0.134 μmol/mg protein in data set [4] (setting [10]); 0.105 μmol/mg protein in data set [4] (setting [11]); 0.078 μmol/mg protein in [4] (setting [12]); 0.135 μmol/mg protein in data set [4] (setting [13]); 0.223 μmol/mg protein in [5] (setting [14]). For the same compound, the “MMA in conditioned medium” value in data set [5] (setting [15]) stood at 0.167 μmol/mg protein; in [5] (setting [16]) it was 0.052 μmol/mg protein; in data set [5] (setting [17]), 0.198 μmol/mg protein; in data set [5] (setting [18]), 0.316 μmol/mg protein; in [5] (setting [19]), 0.269 μmol/mg protein; in [5] (setting [20]), 0.204 μmol/mg protein. Besides, the “MMA in conditioned medium” value in data set [5] (setting [21]) amounted to 0.275 μmol/mg protein. In [7], the “Product under ambient conditions, Wild type CblC” value is given as “H2OCbl”.
As for `CC([S][Co+2])C(=O)NCC(=O)O.CC1=C2N=C(C=C3N=C(C(C)=C4[N-]C(C(CC(N)=O)C4(C)CCC(=O)NCC(C)OP(=O)([O-])OC4C(CO)OC(n5cnc6cc(C)c(C)cc65)C4O)C4(C)N=C1C(CCC(N)=O)C4(C)CC(N)=O)C(CCC(N)=O)C3(C)C)C(CCC(N)=O)C2(C)CC(N)=O` (centres unmarked) [MPGCbl], in data set [1], the “K, concentration-dependent reaction rate (formation from aquacobalamin)” value came out at 39.71 M⁻¹ s⁻¹. In addition, the “Effect of binding to human wild type CblC on configuration” value on human wild type CblC is “induces their base-off configuration”. The “Configuration in the absence of the CblC protein” value in [8] is recorded as “at least a fraction of this Cbl derivative may exist in its base-off configuration”. For the same compound, the “Product of the reaction” value in data set [2] (cobalamin bound to human CblC, in the presence of GSH) is “H2OCbl^+”. Besides, the “Half-life of beta-axial ligand removal, Wild type CblC” value in data set [2] was <0.5 min. For the same compound, the “Product under ambient conditions, Mutant Arg161Gly” value in [3] is listed as “H2OCbl”. The “Half-life of beta-axial ligand removal, Mutant Arg161Gly” value in data set [3] came to 1.5 min. For the same compound, the “MMA in conditioned medium” value is listed as 0.120 μmol/mg protein in data set [4] (setting [9]); 0.121 μmol/mg protein in data set [4] (setting [10]); 0.116 μmol/mg protein in [4] (setting [11]); 0.096 μmol/mg protein in [4] (setting [12]); 0.148 μmol/mg protein in data set [4] (setting [13]); 0.182 μmol/mg protein in [5] (setting [14]). For the same compound, the “MMA in conditioned medium” value in data set [5] (setting [15]) came out at 0.190 μmol/mg protein; in [5] (setting [16]), 0.087 μmol/mg protein; in [5] (setting [17]), 0.212 μmol/mg protein; in data set [5] (setting [18]) it was 0.216 μmol/mg protein; in [5] (setting [19]), 0.183 μmol/mg protein; in data set [5] (setting [20]), 0.178 μmol/mg protein. The “MMA in conditioned medium” value in [5] (setting [21]) stood at 0.185 μmol/mg protein. Besides, the “Reduction of MMA to the levels of healthy fibroblasts, compared with CNCbl” value in data set [5] (0.001 mM, same dose as CNCbl, FIG. 13) is listed as “far superior compared to CNCbl”. Moreover, in the data set on cultured fibroblasts (canonical TC transporter and its cellular receptor CD320), the “Transport into the cells” value is “transported successfully into the cells”. For the same compound, the Cytotoxicity result in the data set with cultured fibroblasts (under the experimental conditions of the fibroblast cultures) is “not cytotoxic”. Also, the “Product under ambient conditions, Wild type CblC” value in data set [7] is reported as “H2OCbl”.
